Read-outs that look alike come from different tables or passages of the source.
What was measured:
[1] = tested on: HSP72 induction (CHO cells); assay: Inhibition of Hsp72 induction by heat shock in CHO cells (immunoblotting); assay type: cell-based; details: for IC50: Cricetulus griseus; for IC50 / Inhibition of Hsp72 induction, second step of the screening: CHO cells; for Inhibition of Hsp72 induction, second step of the screening: 2 μM, 45° C. 10 min, then 6 hours at 37° C.
CHO cells = assay: Toxicity in CHO cells; assay type: cell-based; details: for IC50: Cricetulus griseus, read-out: IC50 toxicity
Source text: Three of these compounds, including emetine, tubulosine, and NZ28, have significant structural similarity.

protein synthesis = details: cited from earlier work
HSP72 = HSP72 induction in MM.1S cells (heat shock, proteasome or HSP90 inhibitors), immunoblotting; assay type: cell-based, human; details: MM.1S; 16 hours
MM.1S cells = assay: Apoptosis by PARP cleavage in MM.1S cells; details: 5 nM, overnight
[2] = heat shock, read-out: IC50 HSP72 Induction Inhibition (CHO cells)

CCC1=C(C)CC2c3cc(OC)c(OC)cc3CCN2C1 (centres unmarked) [NZ61]
IC50 [1, 2]: > 10000 nM | IC50 (CHO cells; CHO cells): < 2000 nM

COc1cc2c(cc1OC)CN1CCc3cc(OC)c(OC)cc3C1C2 (centres unmarked) [NZ50]
IC50 [1, 2]: > 10000 nM | IC50 (CHO cells; CHO cells): < 2000 nM

CCC1CN2CCc3cc(OC)c(OC)cc3C2CC1CC1NCCc2cc(OC)c(OC)cc21 (centres unmarked) [Emetine, reference compound]
Inhibition of Hsp72 induction, second step of the screening [1]: inhibit Hsp72 induction | IC50 [1, 2]: < 250 nM | Toxicity in an apoptotic assay (CHO cells): showed toxicity | IC50 (CHO cells; CHO cells): < 250 nM | Concentration at which protein synthesis is inhibited (protein synthesis): above 10 μM

COc1ccc(CC2NCCc3cc(OC)c(OC)cc32)cc1OC (centres unmarked) [NZ54]
IC50 [1, 2]: > 10000 nM | IC50 (CHO cells; CHO cells): < 2000 nM

CCC1CN2CCc3cc(OC)c(OC)cc3C2CC1CC1NCCc2c1[nH]c1ccc(O)cc21 (centres unmarked) [tubulosine]
Inhibition of Hsp72 induction, second step of the screening [1]: inhibit Hsp72 induction | IC50 [1, 2]: 500 nM | Toxicity in an apoptotic assay (CHO cells): showed toxicity | IC50 (CHO cells; CHO): 250 nM

COc1cc2c(cc1OC)C(CC1=C(c3ccccc3)CN3CCc4cc(OC)c(OC)cc4C3C1)NCC2 (centres unmarked) [NZ62]
IC50 [1, 2]: > 10000 nM | IC50 (CHO cells; CHO cells): < 2000 nM

CC(C)C[C@H](NC(=O)[C@H](Cc1ccccc1)NC(=O)c1cnccn1)B(O)O [VELCADE®, bortezomib, reference compound]
HSP72 induction by the drug (HSP72): Strong induction | PARP cleavage, VELCADE alone (MM.1S cells): 30%

O=c1c(O)c(-c2ccc(O)c(O)c2)oc2cc(O)cc(O)c12 [quercetin, reference compound]
IC50 ([1]; heat shock (FIGS. 3A and 3B), read-out: IC50 for inhibition of Hsps induction): ~50000 nM

CCC1=C(CC2NCCc3cc(OC)c(OC)cc32)CC2c3cc(OC)c(OC)cc3CCN2C1 (centres unmarked) [dehydroemetine, reference compound]
IC50 [1, 2]: < 500 nM | Inhibition of Hsp72 induction by heat shock, NCI similarity set ([1]; concentrations between 2 and 10 μM): inhibit Hsp72 induction | IC50 (CHO cells; CHO cells): < 500 nM

From patent US20090062222A1, “Methods for Sensitizing Cancer Cells to Inhibitors” (TRUSTEES OF BOSTON UNIVERSITY, priority 2005, published 2009)
